# ChEMBL document CHEMBL3507680, “University of Dundee, Gates Library screen for HepG2 cell viability”
# Assay: Human HepG2 cell viability assay in 384 well format
# Assay type: toxicity, cell-based
# Design: dose 125 nL, time 70.5 hour; concentration not given beside the values
# Conditions: HepG2 cells, read-out: Inhibition
row,Structure (SMILES),cytotoxicity at 70.5 h [%]
1,CCC(C(=O)NCCc1nc(C)cc(C(F)(F)F)n1)n1cccn1 (centres undefined),20
2,COc1cccc2c1OCCCN(Cc1c[nH]nc1C(=O)O)C2,-9
3,O=C(CCc1cc(Cl)no1)N1CCCCC1CCN1CCOCC1 (centres undefined),-2.5
4,CC(=O)NCCC1CCCCN1S(=O)(=O)c1cccc(F)c1 (centres undefined),19.6
5,Cc1ccnc(NCCNC(=O)C2CC3(CCNCC3)CN2C)c1 (centres undefined),-3.92
6,CCCc1nnc(N2CCN(C3CCCC3)CC2)o1,-14.3
7,Cc1ccc(C(CNC(=O)c2cc(CC(C)C)nn2C)N(C)C)cc1 (centres undefined),-3.96
8,CC(=O)c1cc(CN2CCCC2c2nc3ccc(C)cc3[nH]2)cs1 (centres undefined),-3.73
9,CN1CCN(C[C@H]2CC[C@@H](Cc3ccc(CN4CCCC4)cc3)O2)CC1,-6.45
10,Cc1noc(C)c1CN1CCC(c2nnc(Cn3cccn3)n2C)CC1,-6.21
11,CC(C)CN(Cc1ccc(O)c(C(=O)O)c1)Cc1ccccn1,5.47
12,c1coc(-c2nc(CNC3CCCNC3)no2)c1 (centres undefined),1.79
13,Cc1nc(NC(=O)N2CCCC(N(C)C)C2)nn1C (centres undefined),31.8
14,Cc1[nH]c(=O)[nH]c(=O)c1CN1CCCC(CCc2ccc(F)c(F)c2)C1 (centres undefined),-10.6
15,COCC1CCN(S(=O)(=O)N2C[C@@H](C)[C@@](C)(O)C2)CC1,-0.99
16,CC[C@@]1(O)CCN(C(=O)c2ccc(-c3ccco3)cc2)C[C@H]1O,-5.37
17,CCn1ccnc1C1CCN(Cc2c(F)cccc2F)CC1,3.09
18,CCOc1ccccc1-n1c(-c2cn(CC)nc2C)n[nH]c1=O,-4.81
19,CN(CCN1CCCCCC1)C(=O)c1c(O)cccc1O,-2.54
20,CCc1cnc(N2CCCOC(CN3CCCC3)C2)nc1 (centres undefined),7.5
21,OCCNc1cc(N2CCN(Cc3ccccc3)C(CCO)C2)ncn1 (centres undefined),-7.07
22,Cc1cc(CN(C)CC2CCCN(CCc3ccc(Cl)cc3)C2)[nH]n1 (centres undefined),-4.86
23,CCOCC(O)c1nc2c([nH]1)CC(C)(C)CNC2=O (centres undefined),-11.8

row,Structure (SMILES),cytotoxicity at 70.5 h [%]
1,CC(=O)N1C[C@@H]2CC[C@H](C1)N(Cc1ccc(Cn3cccn3)cc1)C2,-19.2
2,CN(CCCc1nccn1C)C(=O)C1CCN(C(=O)C2CCC2)CC1,3.53
3,CCN(Cc1ccccc1)C(=O)CCN1C[C@@H](C(=O)O)[C@H](C2CC2)C1,-8.23
4,CCCc1ccc(OC23CCCN(CC2)C3)c(OC)c1 (centres undefined),-9.71
5,Cn1ncc(NC(=O)Cn2ccc(-c3ccc(F)cc3)n2)n1,0.148
6,Cc1nccn1CCC1CCCCN1Cc1ccc(O)cc1Cl (centres undefined),15.6
7,Cc1cccc2sc(NC(=O)CN3CCCC(O)(CO)C3)nc12 (centres undefined),11
8,O=C(NCc1cccnc1N1CCCC(O)C1)c1ccc2[nH]nnc2c1 (centres undefined),-25
9,C[C@@H]1CN(Cc2c[nH]c(CC3CCCC3)n2)CC[C@]1(C)O,-9.37
10,Fc1ccc(CN2CCCC3(CCN(Cc4ncc[nH]4)C3)C2)cc1F (centres undefined),-0.549
11,COc1ccc(C(=O)C2CCCN(c3cc(C#N)ccn3)C2)cc1F (centres undefined),-6.04
12,CN(C)[C@H]1CCCCN(Cc2ccccc2Cn2cccn2)C1,2.32
13,COc1ccc(OC2CCN(C(=O)CCc3nc(Cl)n[nH]3)CC2)cc1,-4.51
14,CCn1c(N)nc2cc(C(=O)N3CCCOCC3)cnc21,-6.56
15,Clc1cccc(C2CCN(c3ncnc4c3CCNC4)C2)c1 (centres undefined),-1.22
16,CCc1oc(C(=O)NCCc2cc(O)nc(C)n2)cc1CN1CCCC1,-6.98
17,Cc1csc2c(N3CCNC(C(=O)N4CCCC4)C3)ncnc12 (centres undefined),-7.34
18,CCNC(=O)[C@@H]1C[C@H](N)CN1c1cc(CC)nc(N(C)C)n1,-4.05
19,O=C(CCN1CCCCO1)N1CC[C@H](O)[C@@H](O)C1,11.6
20,CCc1cc(N[C@H](C(N)=O)C(C)C)n2nc(C)c(C)c2n1,-6.29
21,Cc1nn(C)cc1C(=O)N1CCCC(c2nccn2Cc2cscn2)C1 (centres undefined),-7.69
22,Cc1ocnc1C(=O)N1CCC2(CC1)c1nc[nH]c1CCN2CC(C)C,27.1
23,O=S1(=O)C[C@@H]2[C@H](C1)N(Cc1nc3ccccc3[nH]1)CCN2CC1CC1,-5.06

row,Structure (SMILES),cytotoxicity at 70.5 h [%]
1,CCc1nc2c(N3CCC4(CC3)CNC(=O)C4)ncnc2o1,-3.31
2,CN(C)c1cccc(C(=O)N2C[C@H]3CC[C@@H]2CN(C(=O)C2CCC2)C3)c1,0.254
3,COCCCC1(CO)CCCN(C(=O)c2cnc3c(c2)CCCC3)C1 (centres undefined),-6.26
4,CNc1ncccc1CN1CCN2CCN(C)CC2C1 (centres undefined),-7.61
5,COCCN(Cc1cccs1)c1nc(CCN)nc2ccccc12,-9.93
6,CCn1c(C2CCN(C(=O)c3cc(Cl)no3)CC2)nn(C)c1=O,39
7,O=C(Nc1ccc(F)cc1)N1CCC2(CCC(=O)N(C3CC3)C2)CC1,-11.6
8,FC(F)(F)C1CN(Cc2cccc(OCc3ccccn3)c2)CCO1 (centres undefined),8.84
9,CC(C)[C@H]1CN(C(=O)CO)C[C@@H]1N(C)C,-13.8
10,Cc1cc(C(=O)N2CC[C@H](N3CCN(C)CC3)[C@H](CCCO)C2)n(C)n1,-6.07
11,Cc1c(Cl)cccc1S(=O)(=O)N1C[C@@H]2CC[C@H](C1)N(C)C2=O,1.2
12,CCCc1nc(C(=O)NC(COC)c2ccnn2C)cs1 (centres undefined),-10.8
13,CC(=O)N1CCc2c(nc(N(C)C)nc2NCCCn2ccnc2C)C1,-4.2
14,Nc1nnc(CCCNC(=O)c2ccc(C3CCCNC3)cc2)s1 (centres undefined),8.02
15,O=C1Nc2ccccc2C12CCCN(Cc1ccc3c(c1)OCCO3)C2 (centres undefined),-11.8
16,CCn1c(C)nnc1SCCNC(=O)c1sc(C(C)C)nc1C,-7.2
17,CC(C)OC(=O)N1C[C@H]2CC[C@@H]1CN(C(=O)c1ccccc1)C2,-2.95
18,COCC1(C(=O)N[C@H]2CN(c3ccnc(C)c3)C[C@@H]2C2CC2)CCC1,-8.46
19,COC(=O)CCC(=O)NCc1cccnc1N1CCc2ccccc2C1,3.31
20,CN1CCC(CNC(=O)c2cccc(CN3CCCCCC3)c2)C1 (centres undefined),-5.88
21,CCNc1ncc(-c2cc(-c3ccn(C)c3)nc(N)c2C#N)cn1,-11.6
22,COCCn1ccnc1CN1CCc2[nH]cnc2C1c1cccc(O)c1 (centres undefined),-14.3
23,CCCc1nnc(N2CCN(c3cccc(C)c3C)CC2)o1,-14.8

row,Structure (SMILES),cytotoxicity at 70.5 h [%]
1,Cc1cncc(C2CCCN(C(=O)c3cccn3C)C2)n1 (centres undefined),-5.17
2,NC[C@H]1CC[C@H](C(NC(=O)c2ccccn2)c2ccccn2)CC1 (some centres undefined),-4.69
3,Cc1ccn(CCC(=O)N2CCOC(c3nc(-c4cccs4)no3)C2)n1 (centres undefined),-2.76
4,O=C(c1cnco1)N1CCCC(Cc2nccs2)C1 (centres undefined),-7.07
5,C[C@]1(O)CCN(Cc2cncs2)C[C@@H]1Oc1cccc(F)c1,-0.0777
6,CCc1nccn1-c1cncc(C2CCCN2Cc2ccc(F)cc2)n1 (centres undefined),36.1
7,CC1CCCCN1Cc1ccc(-c2ccccc2C(=O)O)cc1 (centres undefined),0.911
8,COc1ncc(CN2CC[C@@](C)(O)[C@H](Oc3cccc(F)c3)C2)cn1,5.46
9,Cc1nc(CN2CCCC(NCc3ccc4c(c3)CCO4)C2)no1 (centres undefined),14.2
10,Cc1nc(C)n(C2CCCN(C(=O)CCOCC(C)C)C2)n1 (centres undefined),11
11,Cc1nc(CN2CCCC(NCc3ccc4ccccc4c3)C2)no1 (centres undefined),-6.48
12,CCc1nc(C2CCCN2CC(=O)Nc2cc(C)no2)no1 (centres undefined),-5.2
13,Cc1n[nH]c(C)c1NC(=O)CN1CCCC1c1noc(C2CC2)n1 (centres undefined),-18.5
14,Cc1nc(C)n(C2CCCN(C(=O)CCCc3ccccn3)C2)n1 (centres undefined),-7.71
15,Cc1cc(CN2CCCC2c2noc(C(C)C)n2)on1 (centres undefined),-15.4
16,CC(C)c1nc(C2CCCN2Cc2ccon2)no1 (centres undefined),-10.9
17,CCc1nc(C2CCCN2CC(=O)Nc2cc(C)on2)no1 (centres undefined),-6.96
18,CCc1nc(C2CCCN2Cc2ccno2)no1 (centres undefined),-14.3
19,Cc1cccc(C(=O)NCc2ccccc2)n1,-15.5
20,Cc1noc(C(C)C)c1C(=O)NCc1cccnc1,-16.6
21,CNS(=O)(=O)Cc1ccc(CNC(=O)c2ccccn2)cc1,-9.74
22,CCNC(=O)C1CCN(Cn2nc(-c3ccc(F)cc3)oc2=O)CC1,-13.2
23,Cc1noc(C(C)C)c1C(=O)NCc1ccc2c(c1)OCCO2,-5.36

row,Structure (SMILES),cytotoxicity at 70.5 h [%]
1,Cc1cccc(-c2nc(C)nn2CC(=O)NC(C)C2CC2)c1 (centres undefined),-5.76
2,Cc1nc(-c2ccccc2)n(CC(=O)NC2CCCC2)n1,-13.6
3,Cc1nc(CN2CCCC(NCc3cnn(C)c3)C2)no1 (centres undefined),-8.69
4,CC1CN(C)CCN1C(=O)c1ccn(-c2cccc(F)c2)n1 (centres undefined),-15.8
5,Cc1nc(CN2CCCC(NCc3nc4ccccc4s3)C2)no1 (centres undefined),-17.4
6,CC1CN(C)CCN1C(=O)c1ccn(-c2ccc(F)cc2)n1 (centres undefined),-12.3
7,Cc1cc(CN2CCN(c3ccc4nncn4n3)CC2)no1,-11.5
8,Cc1nc(CN2CCCC(NCc3sccc3C)C2)no1 (centres undefined),-2.7
9,CN1CCN(C2CCN(CCCOc3ccc(F)cc3)CC2)C1=O,19.6
10,CN1CCN(C2CCN(CCOc3ccccc3)CC2)C1=O,-14.7
11,COc1c(C2CCCN2C(=O)c2csc(C3CC3)n2)c(C)nn1C (centres undefined),15.2
12,CC(C)c1noc(CN2CCCC2c2noc(C(C)C)n2)n1 (centres undefined),-9.32
13,COc1ccc(CNC(C)Cn2cccn2)cc1OC (centres undefined),1.53
14,CCN1N=C(C(=O)N2CCCC(c3nc(C)c(C)s3)C2)CCC1=O (centres undefined),-0.596
15,c1cnn(CC2CCCN2Cc2nc(C3CC3)no2)c1 (centres undefined),-8.97
16,CC(C)(C)c1nc(CN2CCCC2Cn2cncn2)no1 (centres undefined),-5.99
17,CCOc1ccccc1OC1CCN(Cc2ccn(C)c(=O)c2)CC1,20.3
18,Fc1ccc(Oc2ccc(CNCC3CNc4ccnn4C3)cn2)cc1 (centres undefined),-12.4
19,CCc1csc(C2CCCN(C(=O)c3cnc[nH]3)C2)n1 (centres undefined),-7.63
20,COc1cc(CNC(C)Cn2cccn2)cc(OC)c1 (centres undefined),-9.25
21,c1ccc(Cc2noc(CN3CCCCC3Cn3cccn3)n2)cc1 (centres undefined),-9.87
22,COc1ncc(C2(O)CCN(Cc3cccs3)CC2)c(OC)n1,-8.54
